From patent US6740743B2, “Scorpian toxins” (E. I. du Pont de Nemours and Company, priority 1999, dated 2004)

B1: ibj1c.pk0002.f9 (protein)
chain: MKFLYGIILIALFLTVMIATHSEARCPNCFTTNPNAEADCKKCCGNRWGKCAGYQCVCPMK

How the values were obtained:
[1] = system: Ca+2-activated K-channels and voltage-dependent K-channel (K(v) 1.3); conditions: Maxi-K, medium- and small-conductance Ca+2-activated K-channels and K(v) 1.3; cited from earlier work
[2] = system: Heliothis virescens larvae; assay: Feeding bioassay of recombinant baculoviruses expressing the scorpion peptides on Heliothis virescens larvae; type: in vivo; conditions: four 5-day-old larvae fed 200 mg viral-contaminated diet; symptoms examined 4, 5, 6 and 7 days after fresh diet added
From the text: It has been shown that single amino acids residues are important for receptor binding and for biological activity of K-channel toxins (Sabatier et al. (1994) Int. J. Peptide Protein Res. 43:486-495). The cDNAs described herein were cloned into baculoviruses and used to test their activity against Lepidopteran.
The DNA encoding the peptides was amplified by performing PCR and adding a Bgl II restriction site at the 5′ end and an Eco RI site at the 3′ end to allow cloning into the baculovirus transfer vector pAcUW21 (BD Biosciences-PharMingen, San Diego, Calif.). After amplification in E. coli the presence of the appropriate fragments was confirmed by restriction enzyme analysis. Colonies containing the appropriate fragments were isolated, propagated, and plasmid DNA was prepared for lipofectin-mediated co-transfection into insect cells with linearized polyhedrin-negative AcNPV. Co-transfections were performed essentially as described in Example 7. Polyhedrin-positive recombinant viruses were isolated employing standard plaque purification protocols and were mixed with a plug of HV diet (www.Bio-Serv.com) and fed to Heliothis virescens larvae.
Depicted in Table 3 are the results from two independent experiments in which four 5-day-old larvae were fed 200 mg of viral-contaminated diet. The larvae were allowed to eat for 2 days or until the viral-contaminated diet was consumed, then fresh 1 g diet plugs were added to allow continued feeding.

Row | Molecule | Potency of channel inhibition [1] | Activity of Scorpion Potassium Channel Modifiers on Heliothis virescens Larvae, Experiment 1 [2] | Activity of Scorpion Potassium Channel Modifiers on Heliothis virescens Larvae, Experiment 2 [2]
1 | charybdotoxin [ChTX] | in the low nanomolar range |  | 
2 | ibj1c.pk005.e21: Buthotus judaicus scorpion leiuropeptide III homolog; mature toxin amino acids 31-59 of SEQ ID NO:10, expressed from recombinant baculovirus (VGCEDCPEHCSQQNARAKCENDKCVCEPK) |  | Slightly Active | Active (scored as active if the larvae became irritated and had contractions and died)
3 | ibj1c.pk005.n9: Buthotus judaicus scorpion potassium channel blocking toxin 15-1 homolog; mature toxin amino acids 23-58 of SEQ ID NO:18, expressed from recombinant baculovirus (DLIDVKCISSQECWIACKKVTGRFQGKCQNKQCRCY) |  | Slightly Active | Slightly Active
4 | ibj1c.pk006.h8: Buthotus judaicus scorpion potassium channel blocking toxin 15-1 homolog; mature toxin amino acids 23-58 of SEQ ID NO:16, expressed from recombinant baculovirus (GLIDVRCSASRECWEACRKVTGSGQGKCQNNQCRCY) |  | Slightly Active | Active (scored as active if the larvae became irritated and had contractions and died)
5 | ibj1c.pk006.i20: Buthotus judaicus scorpion kaliotoxin 2 precursor homolog; mature toxin amino acids 23-61 of SEQ ID NO:4, expressed from recombinant baculovirus (QYELDVTCMGGADNCVKPCYDKYGTTKTKCINDRCNCYP) |  | Slightly Active | Slightly Active
6 | ibj1c.pk007.c13: Buthotus judaicus scorpion leiurotoxin I homolog; mature toxin amino acids 38-70 of SEQ ID NO:12, expressed from recombinant baculovirus (AFCNLRRCQLICRESGLLGKCIGDRCECVPHGK) |  | Slightly Active | Slightly Active
7 | ibj1c.pk007.k8: Buthotus judaicus scorpion cobatoxin 1 homolog; mature toxin amino acids 22-58 of SEQ ID NO:2, expressed from recombinant baculovirus (NFKVEAAQCYSSDCRVKCAAMGFNSGKCINSKCKCYK) |  | Slightly Active | Slightly Active
8 | ibj1c.pk008.d3: Buthotus judaicus scorpion leiuropeptide I homolog; mature toxin amino acids 29-56 of SEQ ID NO:8, expressed from recombinant baculovirus (VDCEECPFHCAGKNAIPTCDDGECNCNV) |  | Slightly Active | Slightly Active
9 | ibj1c.pk009.i6: Buthotus judaicus scorpion kaliotoxin 2 precursor homolog; mature toxin amino acids 23-59 of SEQ ID NO:6, expressed from recombinant baculovirus (QVETNVKCTGGSCASTCKRVIGVAAGKCINGRCVCYP) |  | Slightly Active | Slightly Active
10 | B1 |  | Slightly Active | Slightly Active
